Laboratory results from ChEMBL document CHEMBL4622939, “Synthesis and anti-proliferative activity of a novel 1,2,3-triazole tethered chalcone acetamide derivatives” (Bioorg Med Chem Lett, 2020).

What was measured:
Format in all cases: functional, cell-based
A549 = assay: Antiproliferative activity against human A549 cells assessed as cell growth inhibition by MTT assay
SK-N-SH = assay: Antiproliferative activity against human SK-N-SH cells assessed as cell growth inhibition by MTT assay
HeLa = assay: Antiproliferative activity against human HeLa cells assessed as cell growth inhibition by MTT assay
MCF7 = assay: Antiproliferative activity against human MCF7 cells assessed as cell growth inhibition by MTT assay

Compound	IC50 (A549) [µM]	IC50 (SK-N-SH) [µM]	IC50 (HeLa) [µM]	IC50 (MCF7) [µM]
CCCCCCCCCCn1cc(/C=C/C(=O)c2ccc(NC(=O)CN3CCN(C(=O)OC(C)(C)C)CC3)cc2)nn1	45.4	77.8	30.2	40
O=C(CN1CCC(Cc2ccccc2)CC1)Nc1ccc(C(=O)/C=C/c2cn(Cc3ccc(Br)cc3)nn2)cc1	40	42.9	41.9	54.5
CCCCCCCCCCn1cc(/C=C/C(=O)c2ccc(NC(=O)CN3CCN(c4ccccc4OC)CC3)cc2)nn1	62.5	87.6	50.8	44.8
CC(C)(C)OC(=O)N1CCN(CC(=O)Nc2ccc(C(=O)/C=C/c3cn(Cc4ccc(Br)cc4)nn3)cc2)CC1	38.4	25.8	18.9	31
CCCCCCCCn1cc(/C=C/C(=O)c2ccc(NC(=O)CN3CCN(c4ccccc4F)CC3)cc2)nn1	47.1	60.3	33.8	68.6
CCCCCCCCn1cc(/C=C/C(=O)c2ccc(NC(=O)CN3CCN(c4ccc([N+](=O)[O-])cc4)CC3)cc2)nn1	45.4	51.4	30.2	49.1
CCCCCCCCn1cc(/C=C/C(=O)c2ccc(NC(=O)CN3CCN(C(=O)OC(C)(C)C)CC3)cc2)nn1	43.3	38	32	98.4
O=C(CN1CCN(c2ccc([N+](=O)[O-])cc2)CC1)Nc1ccc(C(=O)/C=C/c2cn(Cc3ccc(Br)cc3)nn2)cc1	45.5	26.4	26.6	31.6
CCCCCCCCCCn1cc(/C=C/C(=O)c2ccc(NC(=O)CN3CCN(c4ccccc4)CC3)cc2)nn1	52.1	39.5	59.1	> 100
CCCCCCCCn1cc(/C=C/C(=O)c2ccc(NC(=O)CN3CCN(c4ccccc4)CC3)cc2)nn1	52.4	41.4	33.8	31.9
CCCCCCCCCCn1cc(/C=C/C(=O)c2ccc(NC(=O)CN3CCN(c4ccc([N+](=O)[O-])cc4)CC3)cc2)nn1	64.5	40.9	65.9	44.4
CCCCCCCCCCn1cc(/C=C/C(=O)c2ccc(N)cc2)nn1	35.6	83.4	73.5	52.6
CCCCCCCCn1cc(/C=C/C(=O)c2ccc(NC(=O)CN3CCC(Cc4ccccc4)CC3)cc2)nn1	43.8	57	78.6	52.6
O=C(CN1CCN(c2ccccc2)CC1)Nc1ccc(C(=O)/C=C/c2cn(Cc3ccc(Br)cc3)nn2)cc1	42.1	72.4	79.7	49.2
CCCCCCCCn1cc(/C=C/C(=O)c2ccc(NC(=O)CN3CCN(c4ccccc4OC)CC3)cc2)nn1	34	21.5	26.8	30
CCCCCCCCCCn1cc(/C=C/C(=O)c2ccc(NC(=O)CN3CCC(Cc4ccccc4)CC3)cc2)nn1	67.7	33.3	71.7	55.2
CCCCCCCCCCn1cc(/C=C/C(=O)c2ccc(NC(=O)CN3CCN(c4ccccc4F)CC3)cc2)nn1	57	34.4	47.8	40.4

Now from value to compound:

IC50 (A549) [µM]	IC50 (SK-N-SH) [µM]	IC50 (HeLa) [µM]	IC50 (MCF7) [µM]	Compound
3.24	2.85	2.78	3.7	COc1cccc2c1C(=O)c1c(O)c3c(c(O)c1C2=O)C[C@@](O)(C(=O)CO)C[C@@H]3O[C@H]1C[C@H](N)[C@H](O)[C@H](C)O1 [DOXORUBICIN]
11.6	8.46	8.42	12.9	CCCCCCCCn1cc(/C=C/C(=O)c2ccc(NC(=O)CBr)cc2)nn1
8.67	8.3	7.95	10.1	O=C(CBr)Nc1ccc(C(=O)/C=C/c2cn(Cc3ccc(Br)cc3)nn2)cc1
9.74	8.68	7.41	9.76	CCCCCCCCCCn1cc(/C=C/C(=O)c2ccc(NC(=O)CBr)cc2)nn1
34	28	26.4	36.8	COc1ccccc1N1CCN(CC(=O)Nc2ccc(C(=O)/C=C/c3cn(Cc4ccc(Br)cc4)nn3)cc2)CC1
15.8	25.2	16.4	25.3	Nc1ccc(C(=O)/C=C/c2cn(Cc3ccc(Br)cc3)nn2)cc1
26.9	28.8	26.9	31	CCCCCCCCn1cc(/C=C/C(=O)c2ccc(N)cc2)nn1
14.7	12.8	9.12	11.3	O=C(CN1CCN(c2ccccc2F)CC1)Nc1ccc(C(=O)/C=C/c2cn(Cc3ccc(Br)cc3)nn2)cc1
